How the values were obtained:
[1] = biological target: T1, CDK9/CycT1 (Homo sapiens, UniProt P50750); experiment: CDK9/CycT1 high ATP kinase assay (Method 1b); assay type: biochemical; conditions: 2 mM ATP
T1 construct: Recombinant full-length His-tagged human CDK9 and CycT1; His; purchased Invitrogen PV4131; host or cells: insect cells
Procedure: 1b. CDK9/CycT1 High ATP Kinase Assay
CDK9/CycT1-inhibitory activity of compounds of the present invention at a high ATP concentration after preincubation of enzyme and test compounds was quantified employing the CDK9/CycT1 TR-FRET assay as described in the following paragraphs.
Recombinant full-length His-tagged human CDK9 and CycT1, expressed in insect cells and purified by Ni-NTA affinity chromatography, were purchase from Invitrogen (Cat. No PV4131). As substrate for the kinase reaction biotinylated peptide biotin-Ttds-YISPLKSPYKISEG (C-terminus in amid form) was used which can be purchased e.g. form the company JERINI peptide technologies (Berlin, Germany). For the assay 50 n1 of a 100 fold concentrated solution of the test compound in DMSO was pipetted into a black low volume 384 well microtiter plate (Greiner Bio-One, Frickenhausen, Germany), 2 μl of a solution of CDK9/CycT1 in aqueous assay buffer [50 mM Tris/HCl pH 8.0, 10 mM MgCl2, 1.0 mM dithiothreitol, 0.1 mM sodium ortho-vanadate, 0.01% (v/v) Nonidet-P40 (Sigma)] were added and the mixture was incubated for 15 min at 22° C. to allow pre-binding of the test compounds to the enzyme before the start of the kinase reaction. Then the kinase reaction was started by the addition of 3 μl of a solution of adenosine-tri-phosphate (ATP, 3.3 mM=>final conc. in the 5 μl assay volume is 2 mM) and substrate (1.67 μM=>final conc. in the 5 μl assay volume is 1 μM) in assay buffer and the resulting mixture was incubated for a reaction time of […] at 22° C. The concentration of CDK9/CycT1 was adjusted depending of the activity of the enzyme lot and was chosen appropriate to have the assay in the linear range, typical concentrations were in the range of 0.5 μg/mL. The reaction was stopped by the addition of 5 μl of a solution of TR-FRET detection reagents (0.2 μM streptavidine-XL665 [Cisbio Bioassays, Codolet, France] and 1 nM anti-RB(pSer807/pSer811)-antibody from BD Pharmingen [#558389] and 1.2 nM LANCE EU-W1024 labeled anti-mouse IgG antibody [Perkin-Elmer, product no. AD0077]) in an aqueous EDTA-solution (100 mM EDTA, 0.2% (w/v) bovine serum albumin in 100 mM HEPES/NaOH pH 7.0).
(§1) The resulting mixture was incubated 1 h at 22° C. to allow the formation of complex between the phosphorylated biotinylated peptide and the detection reagents. Subsequently the amount of phosphorylated substrate was evaluated by measurement of the resonance energy transfer from the Eu-chelate to the streptavidine-XL. Therefore, the fluorescence emissions at 620 nm and 665 nm after excitation at 350 nm was measured in a HTRF reader, e.g. a Rubystar (BMG Labtechnologies, Offenburg, Germany) or a Viewlux (Perkin-Elmer). The ratio of the emissions at 665 nm and at 622 nm was taken as the measure for the amount of phosphorylated substrate. […]

[2] = biological target: T1, CDK9/CycT1; experiment: CDK9/CycT1 kinase assay (Method 1a); assay type: biochemical; conditions: 10 μM ATP
Excerpt: 1a. CDK9/CycT1 Kinase Assay:
CDK9/CycT1—inhibitory activity of compounds of the present invention was quantified employing the CDK9/CycT1 TR-FRET assay as described in the following paragraphs:
Recombinant full-length His-tagged human CDK9 and CycT1, expressed in insect cells and purified by Ni-NTA affinity chromatography, were purchased from Invitrogen (Cat. No PV4131). As substrate for the kinase reaction biotinylated peptide biotin-Ttds-YISPLKSPYKISEG (C-terminus in amid form) was used which can be purchased e.g. form the company JERINI Peptide Technologies (Berlin, Germany). For the assay 50 nl of a 100 fold concentrated solution of the test compound in DMSO was pipetted into a black low volume 384 well microtiter plate (Greiner Bio-One, Frickenhausen, Germany), 2 μl of a solution of CDK9/CycT1 in aqueous assay buffer [50 mM Tris/HCl pH 8.0, 10 mM MgCl2, 1.0 mM dithiothreitol, 0.1 mM sodium ortho-vanadate, 0.01% (v/v) Nonidet-P40 (Sigma)] were added and the mixture was incubated for 15 min at 22° C. to allow pre-binding of the test compounds to the enzyme before the start of the kinase reaction. Then the kinase reaction was started by the addition of 3 μl of a solution of adenosine-tri-phosphate (ATP, 16.7 μM=>final conc. in the 5 μl assay volume is 10 μM) and substrate (1.67 μM=>final conc. in the 5 μl assay volume is 1 μM) in assay buffer and the resulting mixture was incubated for a reaction time of 25 min at 22° C. […]
as §1, with “(Perkin-Elmer).” for “(Perkin-Elmer). The ratio of the emissions at 665 nm and at 622 nm was taken as the measure for the amount of phosphorylated substrate.”

T1 sequence (P50750 whole entry): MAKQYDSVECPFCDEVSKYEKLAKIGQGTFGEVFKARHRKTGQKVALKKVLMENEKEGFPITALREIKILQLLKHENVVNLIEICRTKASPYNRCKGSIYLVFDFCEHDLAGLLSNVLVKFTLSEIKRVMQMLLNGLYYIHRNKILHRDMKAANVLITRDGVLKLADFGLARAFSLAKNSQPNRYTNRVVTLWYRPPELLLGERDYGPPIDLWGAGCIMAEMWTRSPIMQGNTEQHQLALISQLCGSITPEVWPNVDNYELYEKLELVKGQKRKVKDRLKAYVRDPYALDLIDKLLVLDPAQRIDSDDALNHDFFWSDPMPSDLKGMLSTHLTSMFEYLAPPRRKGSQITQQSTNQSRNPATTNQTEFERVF
T1 sequence (O60563 whole entry partner): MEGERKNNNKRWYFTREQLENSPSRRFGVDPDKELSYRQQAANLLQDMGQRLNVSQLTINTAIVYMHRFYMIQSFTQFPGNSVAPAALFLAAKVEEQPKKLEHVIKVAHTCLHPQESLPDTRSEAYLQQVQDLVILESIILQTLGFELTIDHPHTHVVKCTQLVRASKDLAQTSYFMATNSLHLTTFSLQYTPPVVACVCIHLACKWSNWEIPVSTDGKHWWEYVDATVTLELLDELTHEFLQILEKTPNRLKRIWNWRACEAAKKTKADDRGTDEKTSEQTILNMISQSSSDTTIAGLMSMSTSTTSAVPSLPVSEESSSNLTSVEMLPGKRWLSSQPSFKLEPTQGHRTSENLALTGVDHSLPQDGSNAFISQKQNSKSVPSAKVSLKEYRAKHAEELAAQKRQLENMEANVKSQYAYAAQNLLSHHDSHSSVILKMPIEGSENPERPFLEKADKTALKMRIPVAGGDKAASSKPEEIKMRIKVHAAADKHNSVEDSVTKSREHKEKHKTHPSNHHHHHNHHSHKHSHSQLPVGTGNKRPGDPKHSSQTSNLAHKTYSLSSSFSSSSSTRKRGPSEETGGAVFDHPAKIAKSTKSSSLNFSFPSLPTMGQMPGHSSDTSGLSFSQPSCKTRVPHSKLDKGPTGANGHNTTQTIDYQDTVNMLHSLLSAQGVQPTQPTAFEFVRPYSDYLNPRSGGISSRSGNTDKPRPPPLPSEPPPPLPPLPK

SMILES	IC50 [1] [nM]	IC50 [2] [nM]
COc1cc(F)ccc1-c1cc(Nc2cc(CS(C)(=O)=O)ccn2)ncn1 [Example 1, 6-(4-Fluoro-2-methoxyphenyl)-N-{4-[(methylsulfonyl)methyl]pyridin-2-yl}pyrimidin-4-amine]	16	3
COc1cc(F)ccc1-c1cc(Nc2cc(CS(C)(=O)=O)cc(C(F)(F)F)n2)ncn1 [Example 3, 6-(4-Fluoro-2-methoxyphenyl)-N-{4-[(methylsulfonyl)methyl]-6-(trifluoromethyl)pyridin-2-yl}pyrimidin-4-amine]	2	4
COc1cc(F)ccc1-c1cc(Nc2cc(CS(C)(=O)=O)cc(C)n2)ncn1 [Example 2, 6-(4-Fluoro-2-methoxyphenyl)-N-{6-methyl-4-[(methylsulfonyl)methyl]pyridin-2-yl}pyrimidin-4-amine]	2	–
COc1cc(F)ccc1-c1cc(Nc2cc(CS(C)(=O)=O)cc(F)n2)ncn1 [Example 4, 6-(4-Fluoro-2-methoxyphenyl)-N-{6-fluoro-4-[(methylsulfonyl)methyl]pyridin-2-yl}pyrimidin-4-amine]	11	3
